Data taken from patent US11147272B2, “Pyridone compounds and agricultural and horticultural fungicides comprising the same as active ingredients” (MITSUI CHEMICALS AGRO, INC., priority 2017, dated 2021).

Key:
[1] = system: Blumeria graminis f. sp. hordei; test: Test Example D: Powdery mildew on barley; settings: for Test D control value class: class of control value
Alternaia brassicicola = test: Test Example C: Alternaria sooty spot on cabbage; type: in vivo; settings: for Test C control value class: class of control value
Description: Seeds of a test plant (cabbage variety: Shikidori) were planted and cultivated until the cotyledons extended.
<Control Value> Control value=100{1−(n/3)}

[2] = system: Colletotrichum orbiculare; test: Test Example H: Anthracnose on cucumber; settings: for Test H control value: 6 to 10 days after inoculation; for Test H control value class: Anthracnose on cucumber (Sagami Hanjiro), 2.5 ml/pot, assessed 6 to 10 days after inoculation
Plasmopara viticola = test: Test Example G: Downy mildew on vine; settings: for Test G control value: 7 to 10 days after inoculation; for Test G control value class: Downy mildew on vine (Neomuscat), 2.5 ml/pot, assessed 7 to 10 days after inoculation
Botrytis cinerea = test: Test Example B: Gray mold on tomato; settings: for Test B control value class: class of control value
Magnaporthe grisea = test: whole plant or invertebrate; type: in vivo; settings: for Test A control value class: class of control value
Phytophthora infestans = test: whole plant or invertebrate; type: in vivo; settings: for Test F control value class: class of control value
Puccinia recondita = test: Test Example E: Brown rust on wheat; type: in vivo; settings: for Test E control value class: class of control value
[3] = Powdery mildew on barley, control value class
[4] = Alternaria sooty spot on cabbage, control value class
[5] = Anthracnose on cucumber, 250 ppm spray
[6] = Downy mildew on vine, 250 ppm spray
[7] = Gray mold on tomato, control value class
[8] = Blast on rice, control value class
[9] = Late blight on tomato, control value class
[10] = Brown rust on wheat, control value class
[11] = Alternaria sooty spot on cabbage
[12] = 250 ppm drug solution sprayed on test plant
[13] = 250 ppm drug solution sprayed (2.5 ml/pot), cucumber Sagami Hanjiro
[14] = 250 ppm drug solution sprayed (2.5 ml/pot), grape Neomuscat

Row | Structure (SMILES) | Test D control value [1, 3] | Test C control value (Alternaia brassicicola; [4]) | Test H control value [2, 5] | Test G control value (Plasmopara viticola; [6]) | Test B control value (Botrytis cinerea; [7]) | Test A control value (Magnaporthe grisea; [8]) | Test F control value (Phytophthora infestans; [9]) | Test E control value (Puccinia recondita; [10]) | Test D control value class ([1]; Powdery mildew on barley) | Test C control value class (Alternaia brassicicola; [11]) | Test H control value class ([2]; 250 ppm spray) | Test G control value class (Plasmopara viticola; 250 ppm spray) | Test B control value class (Botrytis cinerea; Gray mold on tomato) | Test A control value class (Magnaporthe grisea; Blast on rice) | Test F control value class (Phytophthora infestans; Late blight on tomato) | Test E control value class (Puccinia recondita; Brown rust on wheat) | also measured
1 | CCCOC(C)(c1cc(Cl)c(=O)n(CC)c1-c1c(F)cc(F)cc1F)C(C)C (centres unmarked) [compound 229] | H (more than 50% control value) | H (more than 50% control value) | H (more than 50% control value) | H (more than 50% control value) | H (more than 50% control value) | H (more than 50% control value) | L (50% or less control value) | H (more than 50% control value) |  |  |  |  |  |  |  |  | 
2 | CCn1c(-c2c(F)cccc2F)c(C(C)(C)O)cc(Cl)c1=O [compound 23] |  |  |  |  |  |  |  |  | H (more than 50% control value) | H (more than 50% control value) | H (more than 50% control value) | L (50% or less control value) | H (more than 50% control value) | H (more than 50% control value) | L (50% or less control value) | H (more than 50% control value) | 
3 | CCn1c(-c2c(F)cc(F)cc2F)c(C(C)(O)C(C)(C)C)cc(Cl)c1=O (racemic) [compound 174] |  |  |  |  |  |  |  |  | H (more than 50% control value) | H (more than 50% control value) | L (50% or less control value) | L (50% or less control value) | H (more than 50% control value) | H (more than 50% control value) | L (50% or less control value) | H (more than 50% control value) | 
4 | CCn1c(-c2c(F)cc(F)cc2F)c(COC(C)C)cc(Cl)c1=O [compound 58] |  |  |  |  |  |  |  |  | H (more than 50% control value) | H (more than 50% control value) | H (more than 50% control value) | L (50% or less control value) | H (more than 50% control value) | H (more than 50% control value) | L (50% or less control value) | H (more than 50% control value) | 
5 | CCn1c(-c2ccc(F)cc2C)c(CC(C)C)cc(Br)c1=O [compound 204] | H (more than 50% control value) | H (more than 50% control value) | H (more than 50% control value) | H (more than 50% control value) | H (more than 50% control value) | H (more than 50% control value) | L (50% or less control value) | H (more than 50% control value) |  |  |  |  |  |  |  |  | 
6 | CCn1c(-c2ccc(Br)cc2Cl)c(CC(C)C)cc(Br)c1=O [compound 237] | H (more than 50% control value) | H (more than 50% control value) | L (50% or less control value) | L (50% or less control value) | H (more than 50% control value) | L (50% or less control value) | L (50% or less control value) | H (more than 50% control value) |  |  |  |  |  |  |  |  | 
7 | CCCc1cc(Cl)c(=O)n(CC)c1-c1ccc(OC)cc1C [compound 412] |  |  |  |  |  |  |  |  |  |  |  |  |  |  |  |  | Test D control value [1, 12]: H (more than 50% control value); Test C control value (Alternaia brassicicola; [12]): H (more than 50% control value); Test H control value [2, 13]: H (more than 50% control value); Test G control value (Plasmopara viticola; [14]): L (50% or less control value); Test B control value (Botrytis cinerea; [12]): H (more than 50% control value); Test A control value (Magnaporthe grisea; [12]): H (more than 50% control value); Test F control value (Phytophthora infestans; [12]): H (more than 50% control value); Test E control value (Puccinia recondita; [12]): H (more than 50% control value)
8 | CCCC1=C(c2c(F)cc(F)cc2F)N(CC)C(=S)CC1 [compound 424] |  |  |  |  |  |  |  |  |  |  |  |  |  |  |  |  | Test D control value [1, 12]: L (50% or less control value); Test C control value (Alternaia brassicicola; [12]): L (50% or less control value); Test H control value [2, 13]: L (50% or less control value); Test G control value (Plasmopara viticola; [14]): L (50% or less control value); Test B control value (Botrytis cinerea; [12]): H (more than 50% control value); Test A control value (Magnaporthe grisea; [12]): L (50% or less control value); Test F control value (Phytophthora infestans; [12]): L (50% or less control value); Test E control value (Puccinia recondita; [12]): L (50% or less control value)
9 | CCc1cc(Br)c(=O)n(C)c1-c1ccc(F)cc1Br [compound 350] | L (50% or less control value) | H (more than 50% control value) | L (50% or less control value) | H (more than 50% control value) | H (more than 50% control value) | L (50% or less control value) | L (50% or less control value) | H (more than 50% control value) |  |  |  |  |  |  |  |  | 
10 | CCc1cc(Br)c(=O)n(CC)c1-c1ccc(OC)cc1Cl [compound 328] | L (50% or less control value) | H (more than 50% control value) | H (more than 50% control value) | H (more than 50% control value) | H (more than 50% control value) | H (more than 50% control value) | L (50% or less control value) | H (more than 50% control value) |  |  |  |  |  |  |  |  | 
11 | COc1cc(F)c(-c2c(C(C)C)cc(Cl)c(=O)n2C)c(F)c1 [compound 16] |  |  |  |  |  |  |  |  | H (more than 50% control value) | H (more than 50% control value) | H (more than 50% control value) | H (more than 50% control value) | H (more than 50% control value) | H (more than 50% control value) | L (50% or less control value) | H (more than 50% control value) | 
12 | CCn1c(-c2c(F)cccc2F)c(CN(C)C(C)C)cc(Cl)c1=O [compound 80] |  |  |  |  |  |  |  |  | L (50% or less control value) | L (50% or less control value) | H (more than 50% control value) | L (50% or less control value) | H (more than 50% control value) | L (50% or less control value) | H (more than 50% control value) | L (50% or less control value) | 
13 | CCc1cc(Cl)c(=O)n(C)c1-c1ccc(O)cc1Cl [compound 330] | L (50% or less control value) | L (50% or less control value) | L (50% or less control value) | H (more than 50% control value) | H (more than 50% control value) | L (50% or less control value) | L (50% or less control value) | L (50% or less control value) |  |  |  |  |  |  |  |  | 
